Measurements as given in PMC4321955 (Free radical biology & medicine, 2013).

Columns and labels:
[1] = target: ubiquinone-binding site of complex I (site IQ) (Rattus norvegicus, UniProt A6K8N6+P03889+Q641Y2); test: site IQ superoxide/H2O2 production assay; format: biochemical; conditions: at the compound's estimated IC50 (80 µM for compound 15); 5 mM succinate
[2] = system: site IF/DH (site IF plus matrix NAD-linked dehydrogenases); test: site IF/DH superoxide/H2O2 production assay; format: biochemical, rat
[3] = system: flavin site of complex II (site IIF); test: site IIF superoxide/H2O2 production assay; format: biochemical, rat
[4] = system: outer ubiquinone-binding site of complex III (site IIIQo); test: site IIIQo superoxide/H2O2 production assay; format: biochemical, rat
[5] = system: mitochondrial sn-glycerol 3-phosphate dehydrogenase (mGPDH); test: mGPDH superoxide/H2O2 production assay; format: biochemical, rat
[6] = system: mitochondrial membrane potential (ΔΨm); test: ΔΨm assay with potentiometric dye TMRM; format: biochemical, rat; conditions: for lowest concentration that significantly decreased ΔΨm: 5 mM glutamate plus 5 mM malate
complex I = test: rate of reverse electron transport from succinate to NAD; format: biochemical, rat
site IQ = format: biochemical, rat; conditions: […] CN-POBS
site IF = test: steady-state H2O2 production specifically from site IF; format: biochemical, rat; conditions: […] CN-POBS; 5 mM malate, […] ATP, 1.5 mM aspartate, 4 µM rotenone, 1 µg/mL oligomycin
[7] = ref NCBI PubChem compound database; cited from earlier work
[8] = at the compound's estimated site IQ IC50 (80 µM for compound 15)
[9] = dose-response 0.08-80 µM, none observed below this

Question: For `O=[N+]([O-])c1ccc(Oc2ccc(S(=O)(=O)NC3CCCCC3)cc2)cc1` [CN-POBS, N-cyclohexyl-4-(4-nitrophenoxy)benzenesulfonamide], which “IQ: normalized percent change from DMSO in H2O2 production” value [1] is on record?
Answer: The value was −56%.

Question: What about the “IF/DH: normalized percent change from DMSO in H2O2 production” value [2, 8] of the same compound?
Answer: Its value is 7%.

Question: What about the “concentration with significant effects on H2O2 production from site IF/DH” value [2, 9] of the same compound?
Answer: Its value is at least 25 µM.

Question: What about the “IIF: normalized percent change from DMSO in H2O2 production” value [3, 8] of the same compound?
Answer: Its value is 4%.

Question: What about the “concentration with significant effects on H2O2 production from site IIF” value [3, 9] of the same compound?
Answer: Its value is at least 25 µM.

Question: What about the “IIIQo: normalized percent change from DMSO in H2O2 production” value [4, 8] of the same compound?
Answer: Its value is 0%.

Question: What about the “concentration with significant effects on H2O2 production from site IIIQo” value [4, 9] of the same compound?
Answer: Its value is at least 25 µM.

Question: And the “mGPDH: normalized percent change from DMSO in H2O2 production” value [5, 8]?
Answer: Its value is −2%.

Question: What about the “concentration with significant effects on H2O2 production from mGPDH” value [5, 9] of the same compound?
Answer: Its value is at least 25 µM.

Question: What about the “lowest concentration that significantly decreased ΔΨm” value ([6]; absence of nigericin, TMRM) of the same compound?
Answer: Its value is 8 µM.

Question: And the “lowest concentration that significantly decreased ΔΨm” value ([6]; presence of nigericin, TMRM)?
Answer: Its value is 25 µM.

Question: And the “concentration that significantly decreased ΔΨm” value ([6]; 5 mM succinate and 4 µM rotenone, TMRM)?
Answer: Its value is 80 µM.

Question: What about the “ΔΨm: normalized percent change from DMSO” value [6, 8] of the same compound?
Answer: Its value is −1%.

Question: What about the “concentration with significant effect on reverse electron flux through complex I (rate of NAD(P)+ reduction)” value (complex I; 5 mM succinate plus 0.5 mM glutamate, no significant effect below this) of the same compound?
Answer: Its value is at least 25 µM.

Question: And the “Rate of NAD(P)+ Reduction: normalized percent change from DMSO” value (complex I; at the compound's estimated site IQ IC50, succinate via complex I)?
Answer: Its value is −1%.

Question: What about the “decrease in total rate of H2O2 production” value (site IQ; 5 mM succinate alone) of the same compound?
Answer: The value was 50%.

Question: What about the “effect on H2O2 production by succinate in the presence of rotenone (from site IF/DH)” value (site IQ; 5 mM succinate with 4 µM rotenone) of the same compound?
Answer: Its value is “no significant effect”.

Question: What about the “effect on H2O2 production specifically from site IF” value (site IF) of the same compound?
Answer: Its value is “no effect”.

Question: And the LogP [7]?
Answer: Its LogP is 4.1.
